Results from ChEMBL document CHEMBL1130960, “QSAR study of the peptidic fibrinogen inhibitors FK633, FR158999 and related derivatives, using a novel and useful hydrophobic descriptor (logPmw)” (Bioorg Med Chem Lett, 1998).

Assay: Inhibition of binding to fibrinogen receptor

SMILES	Log IC50
COC(=O)C(Cc1ccc(O)cc1)NC(=O)C(CC(=O)O)NC(=O)CCCCOc1ccc(C(=N)N)cc1 (stereo unspecified)	-5.35
CC(C)c1ccc(OCCNC(=O)C(CC(=O)O)NC(=O)CCCOc2ccc(C(=N)N)cc2)cc1 (stereo unspecified)	-6.4
N=C(N)c1ccc(OCCCCC(=O)NC(CC(=O)O)C(=O)NC(Cc2ccc(O)cc2)C(=O)O)cc1 (stereo unspecified)	-6.19
CC(C)[C@H](NC(=O)[C@H](CC(=O)O)NC(=O)CCCOc1ccc(C(=N)N)cc1)C(=O)NC1CCCCC1	-6.7
COc1ccc(CC(NC(=O)C(CC(=O)O)NC(=O)CCCCOc2ccc(C(=N)N)cc2)C(=O)O)cc1 (stereo unspecified)	-6.57
N=C(N)c1ccc(OCCCCC(=O)NC(CC(=O)O)C(=O)NC(CO)C(=O)O)cc1 (stereo unspecified)	-4.92
CCc1ccc(OCCNC(=O)C(CC(=O)O)NC(=O)CCCOc2ccc(C(=N)N)cc2)cc1 (stereo unspecified)	-6.5
Cc1ccc(OCCNC(=O)C(CC(=O)O)NC(=O)CCCOc2ccc(C(=N)N)cc2)cc1C (stereo unspecified)	-6.3
CC(C)[C@H](NC(=O)[C@H](CC(=O)O)NC(=O)CCCOc1ccc(C(=N)N)cc1)C(=O)N1CCS(=O)(=O)CC1	-7.5
CC(C)[C@H](NC(=O)[C@H](CC(=O)O)NC(=O)CCCOc1ccc(C(=N)N)cc1)C(=O)N1CCOCC1	-7.1
N=C(N)c1ccc(OCCCC(=O)NC(CC(=O)O)C(=O)NC(Cc2ccc(O)cc2)C(=O)O)cc1 (stereo unspecified)	-6.8
CC(C)C(C)NC(=O)C(CC(=O)O)NC(=O)CCCOc1ccc(C(=N)N)cc1 (stereo unspecified)	-5.9
COc1ccc(CC(NC(=O)C(CC(=O)O)NC(=O)CCCOc2ccc(C(=N)N)cc2)C(=O)O)cc1 (stereo unspecified)	-6.89

Continued, values first:

Log IC50	SMILES
-7.12	CCCCC(NC(=O)C(CC(=O)O)NC(=O)CCCOc1ccc(C(=N)N)cc1)C(=O)O (stereo unspecified)
-6.6	CCN(CC)C(=O)[C@@H](NC(=O)[C@H](CC(=O)O)NC(=O)CCCOc1ccc(C(=N)N)cc1)C(C)C
-6.64	CC(C)(C)CC(NC(=O)C(CC(=O)O)NC(=O)CCCOc1ccc(C(=N)N)cc1)C(=O)O (stereo unspecified)
-6.85	CC[C@H](C)[C@H](NC(=O)[C@H](CC(=O)O)NC(=O)CCCOc1ccc(C(=N)N)cc1)C(=O)O
-6.2	CC(C)[C@H](NC(=O)[C@H](CC(=O)O)NC(=O)CCCOc1ccc(C(=N)N)cc1)C(N)=O
-6.96	CC(C)C(NC(=O)C(CC(=O)O)NC(=O)CCCOc1ccc(C(=N)N)cc1)C(=O)O (stereo unspecified)
-6.64	CC(C)C(NC(=O)C(CC(=O)O)NC(=O)CCCCOc1ccc(C(=N)N)cc1)C(=O)O (stereo unspecified)
-6.87	CC(C)CC(NC(=O)C(CC(=O)O)NC(=O)CCCOc1ccc(C(=N)N)cc1)C(=O)O (stereo unspecified)
